The source of these data is article PMC5291303 (Science translational medicine, 2016).

SMILES strings stand for the structures.

The subject of series [1] is MIA PaCa-2 model of pancreatic ductal adenocarcinoma. In words: MIA PaCa-2 subcutaneous xenograft efficacy. It counts as in vivo, mice.
The nature of series [2]: Toxicity studies to determine NOAEL. Type of series: in vivo, mice. The note with it: plasma AUC at NOAEL vs at MED.
Series [3] deals with MDA-MB-231-LM2 breast cancer metastases. In words: MDA-MB-231-LM2 experimental lung metastasis model. Type of series: in vivo, SCID/beige mice. The note with it: for Tumor-free animals: up to 106 days after initial treatment.
Series [4] relates to RS4;11 model of adult Philadelphia chromosome–negative ALL. In words: RS4. It counts as in vivo, mice. The note with it: P = 0.0028 tumor cells; P = 0.0024 survival.
The test system of series [5] is human pancreatic cancer PDX. Put plainly: Pancreatic cancer patient-derived xenograft. It counts as in vivo, SCID/beige mice. The note with it: for Effect on tumor growth: gemcitabine 100 mg/m^2, DZ-2384 36 mg/m^2, alone or combined.
Series [6] relates to Rgs16∷GFP;KIC pancreatic model. Put plainly: Rgs16::GFP. Type of series: in vivo, mice.
The test system of series [7] is caudal, digital and tibial nerves; dorsal root ganglia, sciatic nerve. In words: Peripheral neuropathy study. The note with it: for Caudal and digital NCV / Tibial nerve onset latency / Caudal and digital NCV after recovery / Histology of dorsal root ganglia and sciatic nerve: at MTD (DZ-2384 30 mg/m^2, docetaxel 120 mg/m^2). Type of series: in vivo, Sprague-Dawley rats.

Another series is described as follows: Pharmacokinetics in rats. It counts as in vivo, Sprague-Dawley rats. The note with it: rat; 12 mg/m^2.
The test system of series [8] is H1299 cells. In words: Growth inhibition of H1299 cells. Type of series: cell-based.
Another series concerns HeLa cells. Put plainly: 3-day cell viability assay, HeLa. Type of series: cell-based.
Series [9] relates to U-2 osteosarcoma (OS) cells. Put plainly: 3-day viability assay, U-2 OS. It counts as cell-based.
The test system of series [10] is E18 rat primary cortical neurons. In words: IC50 in primary cortical neurons. Type of series: cell-based.
The subject of series [11] is primary rat cortical neurons. Put plainly: Axonal microtubule immunostaining in primary neurons. Type of series: cell-based. The note with it: 1 hour; 0.3 to 100 nM; DZ-2384 up to 100 nM, vinorelbine starting at 0.3 nM.
The subject of series [12] is microtubules in LLC-PK1 cells expressing GFP–α-tubulin. In words: Microtubule dynamic instability in live cells. The note with it: IC80: 24 nM DZ-2384, 11 nM vinorelbine; mean ± SD. It counts as cell-based.
Series [13] deals with tubulin. In words: Surface plasmon resonance binding and competition. The note with it: tubulin (3 μM) preincubated with competitor. A general note: Surface plasmon resonance follows binding to a sensor surface in real time, without labels.
Series [14] has as its system microtubule polymer mass in H1299 cells. In words: Microtubule sedimentation assay. It counts as cell-based. The note with it: 4 hours, increasing concentrations.
Series [15] deals with purified tubulin. Put plainly: Reconstituted single molecule assay for microtubule dynamics. It counts as biochemical. The note with it: for Growth and shrinkage rates: 100 nM DZ-2384.
The test system of series [16] is purified tubulin. In words: Electron microscopy of tubulin oligomer curvature. Type of series: biochemical. The note with it: 10 μM; compared with vinblastine.
In series [17] the test system is H1299 cells. In words: DNA content and caspase-3 activation in H1299 cells. Type of series: cell-based.
For series [18], the system named is U-2 OS osteosarcoma cells. Put plainly: Interphase microtubule immunostaining in U-2 OS cells. It counts as cell-based. The note with it: unsynchronized, IC80 (300 nM each), 2 hours.
The test system of series [19] is U-2 OS cells stably expressing an EB3-mCherry fusion protein. In words: Growing microtubule ends in EB3-mCherry U-2 OS cells. Type of series: cell-based. The note with it: equipotent (IC80) concentrations.
For series [20] the following is noted: all doses tested, each xenograft model.
Series [21] is described as follows: Plasma exposure by LC-MS/MS at MED and NOAEL doses.
Series [22] deals with tubulin. The note with it: cited from earlier work.
Another series is described as follows: in vivo. The note with it: mouse.
Setting [23] is: relative to untreated microtubules.

Regarding `CC(C)[C@H](O)C(=O)N[C@H]1Cc2ccc3c(c2)[C@]2(C4=C(c5nc(CO)co5)N=C(O4)[C@H](C(C)(C)C)NC1=O)c1cc(F)ccc1N[C@@H]2O3` [DZ-2384], in [1] (9 mg/m^2, ~3 months after treatment), the Tumor-free animals result was “all mice were tumor-free”. Also, the Tumor response result in [1] (4 weekly bolus i.v. administrations) is recorded as “complete tumor regression”. The “Safety margin (range over MIA PaCa-2 and HT-29 models)” value in series [2] was 24.4 to 53.5. Also, the Tumor-free animals in [3] (4.5 mg/m^2) is 1 of 5. The Tumor-free animals in series [3] (18 mg/m^2) is 2 of 8. Also, in [3] (all treated groups, P < 0.0001 vs vehicle), the Survival entry is “significantly increased the survival”. Further, the “Effect on lung metastases” value in [3] (starting at the lowest dose tested) is on record as “regression of all lung metastases”. For the same compound, in [4], the “Dose reducing circulating tumor cells (day 23) and increasing survival” value is listed as ≤ 0.7 mg/m^2. In series [5] (day 29), the Deaths entry is given as “One animal inexplicably died”. Besides, the “Effect on tumor growth” value in series [5] is “insignificant effects on tumor growth”. Moreover, the “Body weight loss after the first dose” value in series [5] (then quickly recovered) came to 11%. Further, in series [6] (administered on P23 (no mortality)), the “Tolerability of 30 mg/m^2” value is “tolerated”. Moreover, the “NCV and onset latency” value in [7] (day 24, 12 mg/m^2, vs age-matched controls) is “normal NCV and onset latency”. In [7] (day 24), the “Caudal and digital NCV” value was “slowing of the caudal and distal digital NCV”; the “Tibial nerve onset latency” value is “the tibial nerve was unaffected”. For the same compound, the “Histology of lumbar dorsal root ganglia and sciatic nerve” value in [7] (day 44, 12 mg/m^2) is listed as “no changes”. Besides, in series [7] (day 44), the “Caudal and digital NCV after recovery” value is “remained slow”; the “Histology of dorsal root ganglia and sciatic nerve” value is recorded as “did not find histological evidence of neurotoxicity”. Besides, in “Pharmacokinetics in rats”, the AUC (in general, concentration integrated over time) was 4.371 µg·h/mL. The IC50 – broadly, the concentration that inhibits the measured activity by half – with H1299 cells [8] (H1299 cells) worked out at 0.012 µM. For the same compound, the IC80 (usually the concentration needed for an effect of 80%) with HeLa cells (3-day cell viability assay) worked out at 0.004 µM. In series [9] (U-2 OS, 3-day), this compound had an IC80 of 0.3 µM. The compound also displayed an IC50 in [10] of 0.043 µM. Moreover, the “Axonal morphology, width and tubulin staining” value in series [11] is listed as “minimal qualitative differences”. Besides, in [12], the “%Time per phase Growth” value is given as 42.1 ± 13.1 (0.9109) %, the “%Time per phase Pause” value is listed as 32.7 ± 12.1 (0.7422) %, the “%Time per phase Shrink” value was 25.2 ± 1.4 (0.3079) % and the Dynamicity was 10.4 ±1.4 (0.0335) μm/min. In series [12], the “Growth Distance” value is given as 2.4 ± 0.3 (0.0631) μm, the “Growth Duration” value is listed as 19.0 ± 6.2 (0.2666) s, the “Growth Rate” value is reported as 8.3 ±1.6 (0.0164) μm/min and the “Shrink Distance” value is given as 4.7 ± 0.9 (0.3899) μm. In addition, in [12], the “Shrink Duration” value is reported as 10.6 ± 1.3 (0.6087) s and the “Shrink Rate” value is 27.7 ± 2.2 (0.6081) μm/min. Also, in the series on tubulin [13], the “Competition of tubulin binding to biotinylated DZ-2384 surfaces” value is given as “inhibited its binding”. The Microtubule polymer mass result in series [14] was “decrease in microtubule polymer mass”. Also, in the series with purified tubulin [15] (setting [23]), the “Growth and shrinkage rates” value was “decreased by about twofold”; the Catastrophe frequencies result is “slightly increased”. Besides, in the series on purified tubulin [15] (P = 0.0236 at 50 nM), the Rescue frequency result was “twice the rate seen with vinorelbine”. In addition, the “Protofilament curvature (κ)” value in the series with purified tubulin [16] is on record as “straighter”. Besides, the “Start of accumulation in G2-M phase” value with H1299 cells [17] was in the range of 4 to 8 h. The “Start of apoptosis (procaspase-3 cleavage)” value in the series on H1299 cells [17] (after treatment) is 16 h. Further, in series [18], the Interphase microtubule network result was “microtubules were present”. The “Number of growing microtubules” value in series [19] is “decreased the number of growing microtubules”. Further, the Body weight loss entry in series [20] is reported as “less than 10%”. For the same compound, the “MED Exposure [AUC0-α]” value in series [21] (mouse plasma AUC at the MED of the HT-29 model) is 0.344 µg·h/mL. Besides, the “MED Exposure [AUC0-α]” value in series [21] (mouse plasma AUC at the MED of the MIA PaCa-2 model) was determined as 0.157 µg·h/mL. Also, the “NOAEL Exposure [AUC0-α]” value in series [21] (mouse plasma AUC at the NOAEL dose) amounted to 8.398 µg·h/mL.

Consider `CCC1=C[C@@H]2CN(C1)Cc1c([nH]c3ccccc13)[C@@](C(=O)OC)(c1cc3c(cc1OC)N(C)[C@H]1[C@@](O)(C(=O)OC)[C@H](OC(C)=O)[C@]4(CC)C=CCN5CC[C@]31[C@@H]54)C2` [Vinorelbine, vinorelbine, reference compound], for which the “Safety margin (range over MIA PaCa-2 and HT-29 models)” value in [2] was 0.7 to 1.0. Moreover, the IC50 in the series on H1299 cells [8] (Homo sapiens, NCI-H1299) was 0.015 µM. For the same compound, in the series on HeLa cells (Homo sapiens, 72 h), the IC80 came out at 0.011 µM. In addition, in series [9] (Homo sapiens, U2OS, 72 h), it took 0.3 µM to reach the 80% level (IC80). In [11], the “Axonal morphology, width and tubulin staining” value is “thinner and/or fragmented axons”. Also, in series [12], the “%Time per phase Growth” value was 13.1 ± 7.3 (0.0074) %, the “%Time per phase Pause” value was 48.4 ± 8.1 (0.0141) %, the “%Time per phase Shrink” value was 38.6 ± 8.6 (0.1068) % and the Dynamicity is given as 10.2 ±1.3 (0.0165) μm/min. Moreover, in series [12], the “Growth Distance” value is 2.1 ± 0.2 (0.0036) μm, the “Growth Duration” value is recorded as 17.5 ± 5.8 (0.4242) s, the “Shrink Distance” value is recorded as 6.4 ± 1.4 (0.2345) μm and the “Shrink Duration” value is on record as 17.6 ± 6.6 (0.1570) s. Moreover, the “Shrink Rate” value in series [12] is reported as 24.6 ± 3.5 (0.1242) μm/min. The “Competition of tubulin binding to biotinylated DZ-2384 surfaces” value in the series with tubulin [13] was “blocked its binding”. In addition, the Microtubule polymer mass result in [14] is “like with vinorelbine”. The “Growth and shrinkage rates” value in the series on purified tubulin [15] (setting [23]) was “Comparable growth and shrinkage rate decreases”. Further, in [18], the Interphase microtubule network result was “intact microtubules were difficult to observe”. Besides, the “Number of growing microtubules” value in series [19] was “vastly decreasing the number of growing microtubules”. The Body weight loss entry in [20] is “less than 10%”. For the same compound, the “Affinity compared to vinblastine” value in the series with tubulin [22] was “lower affinity”. For the same compound, the AUC in the series “in vivo” is 3.38 µg·h/mL. In series [21] (mouse, in vivo, 30 mg/m^2), this compound registered an AUC of 2.31 µg·h/mL.

Turning to `CC(=O)O[C@@]12CO[C@@H]1C[C@H](O)[C@@]1(C)C(=O)[C@H](O)C3=C(C)[C@@H](OC(=O)[C@H](O)[C@@H](NC(=O)OC(C)(C)C)c4ccccc4)C[C@@](O)([C@@H](OC(=O)c4ccccc4)[C@H]21)C3(C)C` [docetaxel, reference compound], in [7] (day 24), the “Caudal and digital NCV” value was “decrease in NCV in caudal and digital nerves”; the “Tibial nerve onset latency” value was “increase in onset latency in tibial nerves”. Also, in [7] (day 44), the “Caudal and digital NCV after recovery” value is on record as “no improvement in either caudal or digital NCV”; the “Histology of dorsal root ganglia and sciatic nerve” value is listed as “incomplete recovery of the damaged dorsal root ganglia”. In addition, the Microtubule polymer mass entry in series [14] is “increased microtubule polymer mass”.

As for `Nc1ccn([C@@H]2O[C@H](CO)[C@@H](O)C2(F)F)c(=O)n1` [gemcitabine, reference compound], the “Effect on tumor growth” value in series [5] is listed as “insignificant effects on tumor growth”. Besides, in [6] (weanling mice), the Clinical observations entry was “not with gemcitabine alone”.
